From patent publication US12655126B2, “Imidazole-pyrazole derivatives as antibacterials” (Hoffmann-La Roche Inc., priority 2020, dated 2026)
Counter-ions that a name gives are not always drawn. Like-named read-outs stand apart in the source and are kept apart here.

Tested on: Acinetobacter baumannii ATCC17961
Assay: Antimicrobial susceptibility testing: 90% growth inhibitory concentration (IC90) determination
Format: cell-based
Details: read-out: ATCC 17961 IC90
Experimental: Antimicrobial Susceptibility Testing:
90% Growth Inhibitory Concentration (IC90) Determination
The in vitro antimicrobial activity of the compounds was determined according to the following procedure:
The assay used a 10-points Iso-Sensitest broth medium to measure quantitatively the in vitro activity of the compounds against Acinetobacter baumannii ATCC17961.
Stock compounds in DMSO were serially twofold diluted (e.g. range from 50 to 0.097 μM final concentration) in 384 wells microtiter plates and inoculated with 49 μl the bacterial suspension in Iso-Sensitest medium to have a final cell concentration of ˜5×10^(5) CFU/ml in a final volume/well of 50 ul/well. Microtiter plates were incubated at 35±2° C.
Bacterial cell growth was determined with the measurement of optical density at λ=600 nm each minutes over a time course of 16 h. Growth inhibition was calculated during the logarithmic growth of the bacterial cells with determination of the concentration inhibiting 50% (IC50) and 90% (IC90) of the growth.
Table 1 provides the 90% growth inhibitory concentrations (IC90) in micromoles per liter of the compounds of present invention obtained against the strain Acinetobacter baumannii ATCC17961.

[1] = Acinetobacter baumannii ATCC17961, Iso-Sensitest broth, growth by OD 600 nm over 16 h, 90% growth inhibitory concentration
[2] = Acinetobacter baumannii, ATCC17961, 16 h

SMILES | IC90 [1] | IC90 [2]
Cn1c(-c2cn(-c3cc(Cl)c(N)cn3)nc2C(F)(F)F)cnc1C(=O)Nc1ccc(C(=O)N2CCN(C(=O)C3CC[N+](C)(C)CC3)CC2)c(Cl)c1 [Example A12, 5-[1-(5-amino-4-chloro-2-pyridyl)-3-(trifluoromethyl)pyrazol-4-yl]-N-[3-chloro-4-[4-(1,1-dimethylpiperidin-1-ium-4-carbonyl)piperazine-1-carbonyl]phenyl]-1-methyl-imidazole-2-carboxamide] | 270 nM | 
Cn1c(-c2cn(-c3ncccn3)nc2C(F)(F)F)cnc1C(=O)Nc1ccc(C(=O)N2CCN(C(=O)C3CC[N+](C)(C)CC3)CC2)c(Cl)c1 [Example B1, N-[3-Chloro-4-[4-(1,1-dimethylpiperidin-1-ium-4-carbonyl)piperazine-1-carbonyl]phenyl]-1-methyl-5-[1-pyrimidin-2-yl-3-(trifluoromethyl)pyrazol-4-yl]imidazole-2-carboxamide; formate] |  | 940 nM
Cn1c(-c2cn(-c3ncccn3)nc2C(F)(F)F)cnc1C(=O)Nc1ccc(C(=O)N2CCN(C(=O)[C@@H]3C[C@@H](O)C[N+]3(C)C)CC2)c(Cl)c1 [Example B2, N-[3-chloro-4-[4-[(2S,4R)-4-hydroxy-1,1-dimethyl-pyrrolidin-1-ium-2-carbonyl]piperazine-1-carbonyl]phenyl]-1-methyl-5-[1-pyrimidin-2-yl-3-(trifluoromethyl)pyrazol-4-yl]imidazole-2-carboxamide; formate] | 1600 nM | 
Cn1c(-c2cn(-c3ncccn3)nc2C(F)(F)F)cnc1C(=O)Nc1ccc(C(=O)N2CCN(C(=O)[C@@H]3[C@@H](O)CC[N+]3(C)C)CC2)c(Cl)c1 [Example B3, N-[3-chloro-4-[4-[(2S,3S)-3-hydroxy-1,1-dimethyl-pyrrolidin-1-ium-2-carbonyl]piperazine-1-carbonyl]phenyl]-1-methyl-5-[1-pyrimidin-2-yl-3-(trifluoromethyl)pyrazol-4-yl]imidazole-2-carboxamide; formate] | 3800 nM | 
Cn1c(-c2cn(-c3ncccn3)nc2C(F)(F)F)cnc1C(=O)Nc1ccc(C(=O)N2CCN(C(=O)C3CC[N+](C)(C)CC3O)CC2)c(Cl)c1 (stereo not drawn) [Example B4, N-[3-chloro-4-[4-(3-hydroxy-1,1-dimethyl-piperidin-1-ium-4-carbonyl)piperazine-1-carbonyl]phenyl]-1-methyl-5-[1-pyrimidin-2-yl-3-(trifluoromethyl)pyrazol-4-yl]imidazole-2-carboxamide; formate] | 1900 nM | 
COc1ccc(-n2cc(-c3cnc(C(=O)Nc4ccc(C(=O)N5CCN(C(=O)[C@@H]6CC[N+](C)(C)C[C@H]6O)CC5)c(Cl)c4)n3C)c(C(F)(F)F)n2)nc1 [Example B5, N-[3-chloro-4-[4-[(3S,4R)-3-hydroxy-1,1-dimethyl-piperidin-1-ium-4-carbonyl]piperazine-1-carbonyl]phenyl]-5-[1-(5-methoxy-2-pyridyl)-3-(trifluoromethyl)pyrazol-4-yl]-1-methyl-imidazole-2-carboxamide] | 310 nM | 
COc1ccc(-n2cc(-c3cnc(C(=O)Nc4ccc(C(=O)N5CCN(C(=O)[C@@H]6C[C@@H](O)C[N+]6(C)C)CC5)c(Cl)c4)n3C)c(C(F)(F)F)n2)nc1 [Example B6, N-[3-chloro-4-[4-[(2S,4R)-4-hydroxy-1,1-dimethyl-pyrrolidin-1-ium-2-carbonyl]piperazine-1-carbonyl]phenyl]-5-[1-(5-methoxy-2-pyridyl)-3-(trifluoromethyl)pyrazol-4-yl]-1-methyl-imidazole-2-carboxamide; formate] | 360 nM | 
Cn1c(-c2cn(-c3ccc([N+](=O)[O-])cn3)nc2C(F)(F)F)cnc1C(=O)Nc1ccc(C(=O)N2CCN(C(=O)[C@@H]3[C@@H](O)CC[N+]3(C)C)CC2)c(Cl)c1 [Example B7, N-[3-chloro-4-[4-[(2S,3S)-3-hydroxy-1,1-dimethyl-pyrrolidin-1-ium-2-carbonyl]piperazine-1-carbonyl]phenyl]-1-methyl-5-[1-(5-nitro-2-pyridyl)-3-(trifluoromethyl)pyrazol-4-yl]imidazole-2-carboxamide; formate] | 1600 nM | 
Cn1c(-c2cn(-c3ncccn3)nc2C(F)(F)F)cnc1C(=O)Nc1ccc(C(=O)N2CC[N+](C)(C)CC2)c(Cl)c1 [Example B9, 4-(2-chloro-4-(1-methyl-5-(1-(pyrimidin-2-yl)-3-(trifluoromethyl)-1H-pyrazol-4-yl)-1H-imidazole-2-carboxamido)benzoyl)-1,1-dimethylpiperazin-1-ium] | 5200 nM | 
Cn1c(-c2cn(-c3ncccn3)nc2C(F)(F)F)cnc1C(=O)Nc1ccc(C(=O)N2CCN(C(=O)C3CC[N+](C)(CC4CNC4)CC3)CC2)c(Cl)c1 (stereo not drawn) [Example C1, N-[4-[4-[1-(Azetidin-3-ylmethyl)-1-methyl-piperidin-1-ium-4-carbonyl]piperazine-1-carbonyl]-3-chloro-phenyl]-1-methyl-5-[1-pyrimidin-2-yl-3-(trifluoromethyl)pyrazol-4-yl]imidazole-2-carboxamide; formate] |  | 410 nM
Cn1c(-c2cn(-c3ncccn3)nc2C(F)(F)F)cnc1C(=O)Nc1ccc(C(=O)N2CCN(C(=O)C3CC[N+](C)(CC(N)=O)CC3)CC2)c(Cl)c1 (stereo not drawn) [Example C2, N-[4-[4-[1-(2-amino-2-oxo-ethyl)-1-methyl-piperidin-1-ium-4-carbonyl]piperazine-1-carbonyl]-3-chloro-phenyl]-1-methyl-5-[1-pyrimidin-2-yl-3-(trifluoromethyl)pyrazol-4-yl]imidazole-2-carboxamide; formate] | 1100 nM | 
Cn1c(-c2cn(-c3ccc(N)cn3)nc2C(F)(F)F)cnc1C(=O)Nc1ccc(C(=O)N2CCN(C(=O)[C@@H]3C[C@@H](O)C[N+]3(C)C)CC2)c(Cl)c1 [Example D1, 5-[1-(5-Amino-2-pyridyl)-3-(trifluoromethyl)pyrazol-4-yl]-N-[3-chloro-4-[4-[(2S,4R)-4-hydroxy-1,1-dimethyl-pyrrolidin-1-ium-2-carbonyl]piperazine-1-carbonyl]phenyl]-1-methyl-imidazole-2-carboxamide; formate] |  | 310 nM
Cn1c(-c2cn(-c3ccc(N)cn3)nc2C(F)(F)F)cnc1C(=O)Nc1ccc(C(=O)N2CCN(C(=O)C3CC[N+](C)(C)CC3)CC2)c(Cl)c1 [Example D3, 5-[1-(5-amino-2-pyridyl)-3-(trifluoromethyl)pyrazol-4-yl]-N-[3-chloro-4-[4-(1,1-dimethylpiperidin-1-ium-4-carbonyl)piperazine-1-carbonyl]phenyl]-1-methyl-imidazole-2-carboxamide; formate] | 150 nM | 
Cn1c(-c2cn(-c3ccc(N)cn3)nc2C(F)(F)F)cnc1C(=O)Nc1ccc(C(=O)N2CCN(C(=O)C3(O)CC[N+](C)(C)CC3)CC2)c(Cl)c1 [Example D10, 5-[1-(5-amino-2-pyridyl)-3-(trifluoromethyl)pyrazol-4-yl]-N-[3-chloro-4-[4-(4-hydroxy-1,1-dimethyl-piperidin-1-ium-4-carbonyl)piperazine-1-carbonyl]phenyl]-1-methyl-imidazole-2-carboxamide; formate] | 330 nM | 
Cn1c(-c2cn(-c3ccc(N)cn3)nc2C(F)(F)F)cnc1C(=O)Nc1ccc(C(=O)N2CCN(C(=O)C[N+]3(C)CCC(O)C3)CC2)c(Cl)c1 (stereo not drawn) [Example D11, 5-[1-(5-amino-2-pyridyl)-3-(trifluoromethyl)pyrazol-4-yl]-N-[3-chloro-4-[4-[2-(3-hydroxy-1-methyl-pyrrolidin-1-ium-1-yl)acetyl]piperazine-1-carbonyl]phenyl]-1-methyl-imidazole-2-carboxamide; formate] | 210 nM | 
